Experimental data reported in patent publication US10759813B2, “Neprilysin inhibitors” (THERAVANCE BIOPHARMA R&D IP, LLC, priority 2010, dated 2020).

Biological target: human neprilysin (EC 3.4.24.11; NEP) (Homo sapiens (Human), UniProt P08473)
Assay: In vitro enzyme inhibition assay at human NEP (fluorogenic peptide substrate)
Type: biochemical
Conditions: pKi values at human NEP, recombinant human NEP
Procedure: In Vitro Assays for the Quantitation of Inhibitor Potencies at Human and Rat NEP, and Human ACE
The inhibitory activities of compounds at human and rat neprilysin (EC 3.4.24.11; NEP) and human angiotensin converting enzyme (ACE) were determined using in vitro assays as described below.
Recombinant human NEP and recombinant human ACE were obtained commercially (R&D Systems, Minneapolis, Minn., catalog numbers 1182-ZN and 929-ZN, respectively). The fluorogenic peptide substrate Mca-D-Arg-Arg-Leu-Dap-(Dnp)-OH (Medeiros et al. (1997) Braz. J. Med. Biol. Res. 30:1157-62; Anaspec, San Jose, Calif.) and Abz-Phe-Arg-Lys(Dnp)-Pro-OH (Araujo et al. (2000) Biochemistry 39:8519-8525; Bachem, Torrance, Calif.) were used in the NEP and ACE assays respectively.
The assays were performed in 384-well white opaque plates at 37° C. using the fluorogenic peptide substrates at a concentration of 10 μM in Assay Buffer (NEP: 50 mM HEPES, pH 7.5, 100 mM NaCl, 0.01% polyethylene glycol sorbitan monolaurate (Tween-20), 10 μM ZnSO4; ACE: 50 mM HEPES, pH 7.5, 100 mM NaCl, 0.01% Tween-20, 1 μM ZnSO4).
Test compounds were assayed over the range of concentrations from 10 μM to pM. Test compounds were added to the enzymes and incubated for 30 minute at 37° C. prior to initiating the reaction by the addition of substrate. Reactions were terminated after 20 minutes of incubation at 37° C. by the addition of glacial acetic acid to a final concentration of 3.6% (v/v).
Plates were read on a fluorometer with excitation and emission wavelengths set to 320 nm and 405 nm, respectively. Inhibition constants were obtained by nonlinear regression of the data using the equation (GraphPad Software, Inc., San Diego, Calif.): v=v0/[1+(I/K′)] where v is the reaction rate, v0 is the uninhibited reaction rate, I is the inhibitor concentration and K′ is the apparent inhibition constant.
Compounds of the invention were tested in this assay and found to have pKi values at human NEP as follows.

human neprilysin (EC 3.4.24.11; NEP), sequence (P08473 52-750): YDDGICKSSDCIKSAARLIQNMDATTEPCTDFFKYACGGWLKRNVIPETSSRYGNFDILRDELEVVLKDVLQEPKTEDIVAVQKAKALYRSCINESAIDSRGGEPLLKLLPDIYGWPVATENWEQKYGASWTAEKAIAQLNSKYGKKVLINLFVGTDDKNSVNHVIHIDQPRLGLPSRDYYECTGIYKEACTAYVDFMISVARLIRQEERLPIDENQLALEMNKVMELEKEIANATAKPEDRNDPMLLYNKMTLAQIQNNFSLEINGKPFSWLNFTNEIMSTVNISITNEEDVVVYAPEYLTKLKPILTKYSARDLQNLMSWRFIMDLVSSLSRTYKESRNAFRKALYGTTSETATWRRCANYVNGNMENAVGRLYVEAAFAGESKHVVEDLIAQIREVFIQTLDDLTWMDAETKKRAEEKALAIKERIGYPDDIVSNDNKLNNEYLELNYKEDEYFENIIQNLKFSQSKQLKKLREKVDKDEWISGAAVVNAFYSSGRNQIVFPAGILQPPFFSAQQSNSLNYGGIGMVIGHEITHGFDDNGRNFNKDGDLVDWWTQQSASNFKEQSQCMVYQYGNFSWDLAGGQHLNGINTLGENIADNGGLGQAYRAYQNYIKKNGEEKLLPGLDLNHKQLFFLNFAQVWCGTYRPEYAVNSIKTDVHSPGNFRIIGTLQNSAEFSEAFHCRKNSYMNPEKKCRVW

SMILES	Ki [nM]	pKi
O=C(O)c1cc(C(=O)N[C@H](Cc2ccc(-c3ccccc3)cc2)C[C@@H](O)C(=O)O)on1 [Example 12-14, 5-((1R,3R)-1-Biphenyl-4-ylmethyl-3-carboxy-3-hydroxy-propylcarbamoyl)-isoxazole-3-carboxylic acid]	12.6 to 100	–
COc1ccccc1-c1cc(C(=O)N[C@H](Cc2ccc(-c3ccccc3)cc2)C[C@@H](O)C(=O)O)no1 [Example 12-15, (2R,4R)-5-Biphenyl-4-yl-2-hydroxy-4-{[5-(2-methoxy-phenyl)-isoxazole-3-carbonyl]-amino}-pentanoic acid]	1.26 to 10	–
O=C(N[C@H](Cc1ccc(-c2ccccc2)cc1)C[C@@H](O)C(=O)O)c1cc(-c2ccccc2Cl)on1 [Example 12-16, (2R,4R)-5-Biphenyl-4-yl-4-{[5-(2-chlorophenyl)-isoxazole-3-carbonyl]-amino}-2-hydroxy-pentanoic acid]	–	≥9.0
O=C(N[C@H](Cc1ccc(-c2ccccc2)cc1)C[C@@H](O)C(=O)O)c1cc(-c2ccc(Cl)cc2)on1 [Example 12-17, (2R,4R)-5-Biphenyl-4-yl-4-{[5-(4-chlorophenyl)-isoxazole-3-carbonyl]-amino}-2-hydroxy-pentanoic acid]	1.26 to 10	–
COc1cccc(-c2cc(C(=O)N[C@H](Cc3ccc(-c4ccccc4)cc3)C[C@@H](O)C(=O)O)no2)c1 [Example 12-18, (2R,4R)-5-Biphenyl-4-yl-2-hydroxy-4-{[5-(3-methoxy-phenyl)-isoxazole-3-carbonyl]-amino}-pentanoic acid]	1.26 to 10	–
O=C(N[C@H](Cc1ccc(-c2ccccc2)cc1)C[C@@H](O)C(=O)O)c1cc(CN2CCOCC2)on1 [Example 12-19, (2R,4R)-5-Biphenyl-4-yl-2-hydroxy-4-[(5-morpholin-4-ylmethyl-isoxazole-3-carbonyl)-amino]-pentanoic acid]	12.6 to 100	–
COc1ccc(-c2cc(C(=O)N[C@H](Cc3ccc(-c4ccccc4)cc3)C[C@@H](O)C(=O)O)no2)cc1 [Example 12-20, (2R,4R)-5-Biphenyl-4-yl-2-hydroxy-4-{[5-(4-methoxy-phenyl)-isoxazole-3-carbonyl]-amino}-pentanoic acid]	1.26 to 10	–
O=C(N[C@H](Cc1ccc(-c2ccccc2)cc1)C[C@@H](O)C(=O)O)c1cc(-c2ccccc2O)on1 [Example 12-21, (2R,4R)-5-Biphenyl-4-yl-2-hydroxy-4-{[5-(2-hydroxy-phenyl)-isoxazole-3-carbonyl]-amino}-pentanoic acid]	–	≥9.0
O=C(N[C@H](Cc1ccc(-c2ccccc2)cc1)C[C@@H](O)C(=O)O)c1cc(NC(=O)c2ccccc2Cl)on1 [Example 12-22, (2R,4R)-5-Biphenyl-4-yl-4-{[5-(2-chlorobenzoylamino)-isoxazole-3-carbonyl]-amino}-2-hydroxy-pentanoic acid]	–	≥9.0
O=C(N[C@H](Cc1ccc(-c2ccccc2)cc1)C[C@@H](O)C(=O)O)c1cnc(-c2ccccc2)o1 [Example 12-23, (2R,4R)-5-Biphenyl-4-yl-2-hydroxy-4-[(2-phenyl-oxazole-5-carbonyl)-amino]-pentanoic acid]	1.26 to 10	–
CC(=O)Nc1ncc(C(=O)N[C@H](Cc2ccc(-c3ccccc3)cc2)C[C@@H](O)C(=O)O)s1 [Example 12-24, (2R,4R)-4-[(2-Acetylamino-thiazole-5-carbonyl)-amino]-5-biphenyl-4-yl-2-hydroxy-pentanoic acid]	12.6 to 100	–
COc1ccccc1C(=O)Nc1nc(C(=O)N[C@H](Cc2ccc(-c3ccccc3)cc2)C[C@@H](O)C(=O)O)cs1 [Example 12-25, (2R,4R)-5-Biphenyl-4-yl-2-hydroxy-4-{[2-(2-methoxy-benzoylamino)-thiazole-4-carbonyl]-amino}-pentanoic acid]	12.6 to 100	–
O=C(N[C@H](Cc1ccc(-c2ccccc2)cc1)C[C@@H](O)C(=O)O)c1nc(-c2ccccc2Cl)no1 [Example 12-26, (2R,4R)-5-Biphenyl-4-yl-4-{[3-(2-chlorophenyl)-[1,2,4]oxadiazole-5-carbonyl]-amino}-2-hydroxy-pentanoic acid]	1.26 to 10	–
O=C(N[C@H](Cc1ccc(-c2ccccc2)cc1)C[C@@H](O)C(=O)O)c1noc(=O)[nH]1 [Example 12-27, (2R,4R)-5-Biphenyl-4-yl-2-hydroxy-4-[(5-oxo-4,5-dihydro-[1,2,4]oxadiazole-3-carbonyl)-amino]-pentanoic acid]	–	≥9.0
O=C(O)c1cnc(C(=O)N[C@H](Cc2ccc(-c3ccccc3)cc2)CC(O)C(=O)O)cn1 (stereo partly drawn) [Example 13-1, 5-((R)-1-Biphenyl-4-ylmethyl-3-carboxy-3-hydroxypropylcarbamoyl)-pyrazine-2-carboxylic acid]	1.26 to 10	–
O=C(O)c1ccc(C(=O)N[C@H](Cc2ccc(-c3ccccc3)cc2)CC(O)C(=O)O)nn1 (stereo partly drawn) [Example 13-3, 6-((R)-1-Biphenyl-4-ylmethyl-3-carboxy-3-hydroxypropylcarbamoyl)-pyridazine-3-carboxylic acid]	12.6 to 100	–
O=C(N[C@H](Cc1ccc(-c2ccccc2)cc1)CC(O)C(=O)O)c1ccc(O)nn1 (stereo partly drawn) [Example 13-5, (R)-5-Biphenyl-4-yl-2-hydroxy-4-[(6-hydroxypyridazine-3-carbonyl)-amino]-pentanoic acid]	12.6 to 100	–
O=C1CCC(C(=O)N[C@H](Cc2ccc(-c3ccccc3)cc2)CC(O)C(=O)O)=NN1 (stereo partly drawn) [Example 13-6, (R)-5-Biphenyl-4-yl-2-hydroxy-4-[(6-oxo-1,4,5,6-tetrahydro-pyridazine-3-carbonyl)-amino]-pentanoic acid]	12.6 to 100	–
O=C(O)c1ccc(C(=O)N[C@H](Cc2ccc(-c3ccccc3)cc2)CC(O)C(=O)O)nc1 (stereo partly drawn) [Example 13-7, 6-((R)-1-Biphenyl-4-ylmethyl-3-carboxy-3-hydroxypropylcarbamoyl)nicotinic acid]	12.6 to 100	–
O=C(N[C@H](Cc1ccc(-c2ccccc2)cc1)CC(O)C(=O)O)c1ccc(C(=O)O)nc1 (stereo partly drawn) [Example 13-8, 5-((R)-1-Biphenyl-4-ylmethyl-3-carboxy-3-hydroxypropylcarbamoyl)-pyridine-2-carboxylic acid]	12.6 to 100	–
O=C(N[C@H](Cc1ccc(-c2ccccc2)cc1)CC(O)C(=O)O)c1cc[nH]n1 (stereo partly drawn) [Example 15-1, (R)-5-Biphenyl-4-yl-2-hydroxy-4-[(1H-pyrazole-3-carbonyl)amino]pentanoic acid]	12.6 to 100	–
O=C(O)Cc1cc(C(=O)N[C@H](Cc2ccc(-c3ccccc3)cc2)C[C@@H](O)C(=O)O)n[nH]1 [Example 15-2, (2R,4R)-5-Biphenyl-4-yl-4-[(5-carboxymethyl-1H-pyrazole-3-carbonyl)amino]-2-hydroxy-pentanoic acid]	1.26 to 10	–
O=C(N[C@H](Cc1ccc(-c2ccccc2)cc1)C[C@@H](O)C(=O)O)c1cc(CO)[nH]n1 [Example 15-3, (2R,4R)-5-Biphenyl-4-yl-2-hydroxy-4-[(5-hydroxymethyl-1H-pyrazole-3-carbonyl)-amino]-pentanoic acid]	1.26 to 10	–
COCc1cc(C(=O)N[C@H](Cc2ccc(-c3ccccc3)cc2)C[C@@H](O)C(=O)O)n[nH]1 [Example 15-4, (2R,4R)-5-Biphenyl-4-yl-2-hydroxy-4-[(5-methoxymethyl-1H-pyrazole-3-carbonyl)-amino]-pentanoic acid]	1.26 to 10	–
Cn1nc(C(=O)N[C@H](Cc2ccc(-c3ccccc3)cc2)C[C@@H](O)C(=O)O)cc1C(=O)O [Example 15-5, 5-((1R,3R)-1-Biphenyl-4-ylmethyl-3-carboxy-3-hydroxypropylcarbamoyl)-2-methyl-2H-pyrazole-3-carboxylic acid]	–	≥9.0
O=C(N[C@H](Cc1ccc(-c2ccccc2)cc1)CC(O)C(=O)O)c1cc(C(=O)O)n(Cc2ccc(Cl)c(SC(F)(F)F)c2)n1 (stereo partly drawn) [Example 15-6, 5-((R)-1-Biphenyl-4-ylmethyl-3-carboxy-3-hydroxypropylcarbamoyl)-2-(4-chloro-3-trifluoromethylsulfanyl-benzyl)-2H-pyrazole-3-carboxylic acid]	12.6 to 100	–
O=C(N[C@H](Cc1ccc(-c2ccccc2)cc1)CC(O)C(=O)O)c1cc(C(=O)O)n(Cc2cccc(Cl)c2)n1 (stereo partly drawn) [Example 15-7, 5-((R)-1-Biphenyl-4-ylmethyl-3-carboxy-3-hydroxypropylcarbamoyl)-2-(3-chlorobenzyl)-2H-pyrazole-3-carboxylic acid]	1.26 to 10	–
O=C(N[C@H](Cc1ccc(-c2ccccc2)cc1)CC(O)C(=O)O)c1cc(C(=O)O)n(Cc2c(F)cc(Cl)cc2F)n1 (stereo partly drawn) [Example 15-8, 5-((R)-1-Biphenyl-4-ylmethyl-3-carboxy-3-hydroxy-propylcarbamoyl)-2-(4-chloro-2,6-difluorobenzyl)-2H-pyrazole-3-carboxylic acid]	1.26 to 10	–
